Molecular target: T1, Brunfelsia calycina POD (purified 40-kDa anthocyanin degradation-related peroxidase; BcPrx01 suggested)
T1 construct: native POD purified from petals, close to 40 kDa
Experiment: guaiacol/H2O2 peroxidase activity assay with purified POD, absorbance at […] nm
Format: biochemical, Brunfelsia pauciflora var. calycina (Brunfelsia calycina)

O=C(O[C@@H]1Cc2c(O)cc(O)cc2O[C@@H]1c1ccc(O)c(O)c1)c1cc(O)c(O)c(O)c1 [ECG, epicatechin-3-gallate]
IC50: 21.5 µM

O=C(O[C@@H]1Cc2c(O)cc(O)cc2O[C@H]1c1cc(O)c(O)c(O)c1)c1cc(O)c(O)c(O)c1 [GCG, gallocatechin-3-gallate]
IC50: 29.7 µM

— PMC5412285, “Characterization of Active Anthocyanin Degradation in the Petals of Rosa chinensis and Brunfelsia calycina Reveals the Effect of Gallated Catechins on Pigment Maintenance” (International Journal of Molecular Sciences, 2017)
